Experimental data from ChEMBL document CHEMBL3988442, “University of Dundee, Small-Polar-MMV Screening Library” (2021).
“And” between values parts separate entries of the source, which are not always exact repeats. Identical values can stand only once.

What was measured:
Lysine--tRNA ligase = Lysine--tRNA ligase (Plasmodium falciparum (isolate 3D7), UniProt Q8IDJ8); assay: Pf-KRS-1 (Lysyl-RNA Synthetase-1, KRS-1, cytosolic KRS) from Plasmodium falciparum. Inhibitor assay, 384 well plate, luminescence read.; assay type: functional
Lysine--tRNA ligase, sequence (Q8IDJ8 whole entry): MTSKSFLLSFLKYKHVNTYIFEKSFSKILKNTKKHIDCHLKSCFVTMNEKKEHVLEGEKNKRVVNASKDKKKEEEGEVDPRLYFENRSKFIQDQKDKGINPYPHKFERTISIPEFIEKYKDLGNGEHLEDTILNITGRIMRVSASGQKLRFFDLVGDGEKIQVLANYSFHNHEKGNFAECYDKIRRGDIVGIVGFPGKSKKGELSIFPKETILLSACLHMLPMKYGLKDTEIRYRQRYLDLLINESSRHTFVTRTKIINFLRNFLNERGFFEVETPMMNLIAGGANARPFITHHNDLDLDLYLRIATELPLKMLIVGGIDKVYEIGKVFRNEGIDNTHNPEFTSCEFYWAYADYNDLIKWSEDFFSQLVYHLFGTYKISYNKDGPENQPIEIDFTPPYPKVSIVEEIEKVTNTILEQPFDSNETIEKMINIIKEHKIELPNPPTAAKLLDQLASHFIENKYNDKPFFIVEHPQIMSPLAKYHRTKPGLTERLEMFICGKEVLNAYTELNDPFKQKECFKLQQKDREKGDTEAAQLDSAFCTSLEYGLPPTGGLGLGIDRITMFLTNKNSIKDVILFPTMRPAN

Wolbachia pipientis = assay: Anti-Wolbachia Cell-Based Screen; assay type: functional; details: for IC50: Wolbachia pipientis
Histidine--tRNA ligase = biological target: T1, Histidine--tRNA ligase (Leishmania infantum, UniProt A4I591); assay: Leishmania infantum Histidine tRNA synthetase (LdHisRS); assay type: functional
T1 sequence (A4I591 whole entry): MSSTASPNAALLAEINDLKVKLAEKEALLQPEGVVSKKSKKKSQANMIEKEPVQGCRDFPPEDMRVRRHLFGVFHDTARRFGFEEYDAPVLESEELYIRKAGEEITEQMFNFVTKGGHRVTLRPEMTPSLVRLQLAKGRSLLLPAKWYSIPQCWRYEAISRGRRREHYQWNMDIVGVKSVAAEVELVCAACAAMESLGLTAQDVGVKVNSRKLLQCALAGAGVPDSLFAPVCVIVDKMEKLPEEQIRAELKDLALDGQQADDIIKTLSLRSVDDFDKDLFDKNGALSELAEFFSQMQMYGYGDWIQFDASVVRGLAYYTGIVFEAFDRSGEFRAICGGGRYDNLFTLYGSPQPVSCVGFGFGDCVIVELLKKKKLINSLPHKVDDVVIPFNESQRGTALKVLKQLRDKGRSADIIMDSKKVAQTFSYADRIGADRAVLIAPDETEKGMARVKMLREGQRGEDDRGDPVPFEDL

[1] = biological target: Polyketide synthase Pks13 (Mycobacterium tuberculosis (strain ATCC 25618 / H37Rv), UniProt I6X8D2); assay: Mycobacterium tuberculosis Polyketide synthase 13 Thioesterase (PKS13); assay type: functional
Polyketide synthase Pks13, sequence (I6X8D2 whole entry): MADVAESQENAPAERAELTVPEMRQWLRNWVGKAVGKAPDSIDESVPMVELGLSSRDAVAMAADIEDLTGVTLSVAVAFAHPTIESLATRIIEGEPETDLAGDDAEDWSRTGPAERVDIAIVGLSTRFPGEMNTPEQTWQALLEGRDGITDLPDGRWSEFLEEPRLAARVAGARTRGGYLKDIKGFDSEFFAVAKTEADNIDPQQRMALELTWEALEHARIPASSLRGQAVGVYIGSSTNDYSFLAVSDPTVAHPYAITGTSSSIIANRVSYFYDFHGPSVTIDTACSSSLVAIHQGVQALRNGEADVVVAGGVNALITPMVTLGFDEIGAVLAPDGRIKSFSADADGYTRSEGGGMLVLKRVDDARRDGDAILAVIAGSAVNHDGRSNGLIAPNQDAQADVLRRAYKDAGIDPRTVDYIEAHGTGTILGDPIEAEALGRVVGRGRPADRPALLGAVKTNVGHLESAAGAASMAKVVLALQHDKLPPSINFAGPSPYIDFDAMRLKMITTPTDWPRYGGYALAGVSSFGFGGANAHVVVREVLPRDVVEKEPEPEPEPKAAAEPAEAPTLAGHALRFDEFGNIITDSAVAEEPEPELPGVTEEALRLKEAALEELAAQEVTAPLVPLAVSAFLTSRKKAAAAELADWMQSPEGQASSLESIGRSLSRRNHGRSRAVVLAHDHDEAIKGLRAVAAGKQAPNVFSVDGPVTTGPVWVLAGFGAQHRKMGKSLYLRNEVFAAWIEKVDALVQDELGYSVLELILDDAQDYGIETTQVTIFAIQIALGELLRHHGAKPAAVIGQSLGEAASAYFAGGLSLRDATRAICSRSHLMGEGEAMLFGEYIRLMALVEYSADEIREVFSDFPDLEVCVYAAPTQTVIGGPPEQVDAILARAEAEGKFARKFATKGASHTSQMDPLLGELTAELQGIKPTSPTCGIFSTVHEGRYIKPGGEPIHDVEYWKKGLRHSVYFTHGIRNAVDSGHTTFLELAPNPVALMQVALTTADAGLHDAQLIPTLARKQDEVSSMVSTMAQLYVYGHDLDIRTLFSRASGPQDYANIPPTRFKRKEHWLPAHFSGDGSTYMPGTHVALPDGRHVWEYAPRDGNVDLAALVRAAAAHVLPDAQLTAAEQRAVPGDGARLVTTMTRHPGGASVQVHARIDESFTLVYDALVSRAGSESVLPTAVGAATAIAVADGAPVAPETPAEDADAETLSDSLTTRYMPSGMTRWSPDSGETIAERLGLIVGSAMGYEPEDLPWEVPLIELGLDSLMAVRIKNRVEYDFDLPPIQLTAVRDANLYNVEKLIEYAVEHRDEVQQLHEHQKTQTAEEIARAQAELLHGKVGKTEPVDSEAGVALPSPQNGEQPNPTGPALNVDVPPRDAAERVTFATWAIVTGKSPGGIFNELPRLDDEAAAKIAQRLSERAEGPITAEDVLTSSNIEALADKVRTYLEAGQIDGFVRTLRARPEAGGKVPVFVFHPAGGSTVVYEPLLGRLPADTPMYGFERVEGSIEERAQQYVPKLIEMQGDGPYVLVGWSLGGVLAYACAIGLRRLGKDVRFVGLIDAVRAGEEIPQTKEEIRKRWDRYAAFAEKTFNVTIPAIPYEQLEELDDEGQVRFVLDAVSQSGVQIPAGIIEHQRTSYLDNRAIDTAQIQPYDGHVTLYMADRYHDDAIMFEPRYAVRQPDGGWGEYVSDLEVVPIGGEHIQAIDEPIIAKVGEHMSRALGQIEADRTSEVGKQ

[2] = microbe, parasite or virus in culture; details: Mycobacterium tuberculosis, 72 h, read-out: pIC50 (converted)
[3] = microbe, parasite or virus in culture; details: Mycobacterium tuberculosis, 96 h, read-out: pIC50 (converted)
ClpP1P2 = ClpP1P2 (Mycobacterium tuberculosis (strain ATCC 25618 / H37Rv), UniProt P9WPC3+P9WPC5); assay: in vitro assay to detect presence of AMC directly proportional to the activity of ClpP1P2. GHDDI collaboration.; assay type: functional
ClpP1P2, sequence (P9WPC5 whole entry): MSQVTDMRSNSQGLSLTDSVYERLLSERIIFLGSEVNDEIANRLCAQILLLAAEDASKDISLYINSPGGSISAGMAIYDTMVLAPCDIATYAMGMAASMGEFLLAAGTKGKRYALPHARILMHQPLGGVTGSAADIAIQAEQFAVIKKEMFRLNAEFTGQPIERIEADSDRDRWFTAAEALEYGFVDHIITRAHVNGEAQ
ClpP1P2, sequence (P9WPC3 whole entry): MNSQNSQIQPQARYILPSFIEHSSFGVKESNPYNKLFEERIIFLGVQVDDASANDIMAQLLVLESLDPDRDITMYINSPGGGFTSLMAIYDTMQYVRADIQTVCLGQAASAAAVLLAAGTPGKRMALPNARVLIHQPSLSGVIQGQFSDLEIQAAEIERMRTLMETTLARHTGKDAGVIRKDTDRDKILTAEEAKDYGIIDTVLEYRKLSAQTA

Schistosoma mansoni = assay: High throughput screening of compounds against Schistosoma mansoni motility; assay type: functional; set-up: dose or concentration left out as unconfirmed
[4] = test system: Mycobacterium tuberculosis; assay: Cornell M. t heat shock assay; assay type: functional, organism-based; details: for IC50: Mycobacterium tuberculosis

COc1ccc(CC(=O)N(C)c2cccnc2N(C)C)c(Cl)c1
IC50 (Lysine--tRNA ligase): > 50.1 µM | pIC50 (Wolbachia pipientis): 5.287 | IC50 (Wolbachia pipientis): 4.83 µM | IC50 (Histidine--tRNA ligase): 19.4 µM and 16.5 µM

O=C1[C@H]2CC[C@H](CN(c3ncnc4ccsc34)C2)N1CC1CC1
pIC50 (Wolbachia pipientis): 5.348 | IC50 (Wolbachia pipientis): 5.55 µM | IC50 [1]: > 100 µM | IC50 [2]: > 50.1 µM | IC50 [3]: > 50.1 µM

CCn1cc(-c2cc(-c3cc(CN(C)C)cs3)nc(N)c2C#N)c(C)n1
IC50 (Wolbachia pipientis): > 10 µM | IC50 [1]: 24.7 µM and 11 µM | IC50 (ClpP1P2): > 100 µM

CNc1cc(C)nc(N2Cc3cnn(Cc4ccc(F)cc4)c3C2)n1
pIC50 (Wolbachia pipientis): 6.156 | IC50 (Wolbachia pipientis): 0.556 µM | IC50 [2]: 33.6 µM | IC50 [3]: 24.2 µM

Cc1csc(CN(C)c2cc(C)nc3c(C)c(C)nn23)n1
pIC50 (Wolbachia pipientis): 5.234 | IC50 (Wolbachia pipientis): 6.27 µM | IC50 [2]: 37.9 µM | IC50 [3]: 25.5 µM

CN(Cc1ccc(F)cc1)CC1(O)CCCN(CC(C)(C)C)C1=O (stereo unspecified)
Percent Effect (Schistosoma mansoni): 7.085% | IC50 (Wolbachia pipientis): > 10 µM

CSCC[C@H](N)C(=O)NCc1cc2n(n1)CCCN(C(=O)C1CCC1)C2
Percent Effect (Schistosoma mansoni): -28.36% | IC50 (Wolbachia pipientis): > 10 µM

CCOCCCn1c(NC(=O)c2cnc(C)s2)nc2ccccc21
IC50 (Wolbachia pipientis): > 10 µM

Cc1cc(C)n(CC2CCCN2CC(=O)Nc2cc(C(C)C)no2)n1 (stereo unspecified)
pIC50 [4]: 4.348 and 4.706

Cc1noc(NC(=O)c2ccccc2)n1
pIC50 [4]: 4.405 | IC50 [4]: 62.6 µM

COCCCNC(=O)CN(C)C(=O)c1cc(Cl)ccc1O
pIC50 [4]: < 4 | IC50 [4]: 87.8 µM

O=C(CCc1ccccc1Cl)NS(=O)(=O)c1ccc2c(c1)OCCO2
IC50 (Wolbachia pipientis): > 10 µM

CCNc1cc2c(nn1)CCN(C(=O)c1ccnc(C)n1)C2
IC50 (Wolbachia pipientis): > 10 µM | IC50 (Histidine--tRNA ligase): 58.6 µM and 51.7 µM

Cc1cc(C)n(CC2CCCN2C(=O)CCc2ccco2)n1 (stereo unspecified)
IC50 (Wolbachia pipientis): > 10 µM

COc1cc(C(=O)Nc2nc(C)no2)cc(OC)c1Br
pIC50 [4]: 4.518 | IC50 [4]: 21 µM

COc1cc(C(=O)Nc2nc(C)no2)ccc1OC(F)F
pIC50 [4]: 4.585 | IC50 [4]: 41.3 µM

COc1cc(C(=O)Nc2nc(C)no2)cc(Cl)c1OC
pIC50 [4]: 4.499 | IC50 [4]: 24.8 µM

CCOc1cccc2c1OCC(C(=O)NS(=O)(=O)c1c(C)noc1C)=C2
pIC50 [4]: < 4 | IC50 [4]: 69.3 µM

O=C(CCc1ccc(Cl)s1)N1CCC(N2CCNC2=O)CC1
IC50 (Wolbachia pipientis): > 10 µM

Cc1cnn(CC2CCCCN2C(=O)c2ccc(CN(C)C)cc2)c1 (stereo unspecified)
IC50 (Wolbachia pipientis): > 10 µM

O=C(Nc1nc2c(s1)CNCC2)NC1CCCC1
IC50 [4]: > 100 µM

CCC(CN1CCOCC1)n1cncc1-c1ccc2c(c1)CCN2CC (stereo unspecified)
IC50 [4]: 98.5 µM

N#Cc1ccc(N2CCCC3(CCN(c4cccnc4)CC3)C2)cc1.O=C(O)C(F)(F)F
pIC50 (Wolbachia pipientis): 6.279 and 5.873 | IC50 (Histidine--tRNA ligase): 24.6 µM and 24.2 µM

CO[C@@H]1CCN(c2nnc(C)s2)C[C@@H]1Cc1cccc(C)c1.O=C(O)C(F)(F)F
pIC50 (Wolbachia pipientis): 5.813 | IC50 (Wolbachia pipientis): 1.57 µM | IC50 [2]: 41.6 µM | IC50 [3]: 16.3 µM

CO[C@@H]1CCN(c2nnc(C)s2)C[C@@H]1Cc1ccccc1.O=C(O)C(F)(F)F
pIC50 (Wolbachia pipientis): 6.169 | IC50 (Wolbachia pipientis): 0.958 µM | IC50 [2]: 11.3 µM | IC50 [3]: 7.95 µM

CO[C@H]1CCN(c2nnc(C)s2)C[C@@H]1Cc1ccccc1.O=C(O)C(F)(F)F
pIC50 (Wolbachia pipientis): 5.449 | IC50 (Wolbachia pipientis): 3.77 µM | IC50 [2]: 40.3 µM | IC50 [3]: 15.7 µM

COc1ccc(C[C@H]2CN(c3nnc(C)s3)CC[C@H]2OC)cc1.O=C(O)C(F)(F)F
pIC50 (Wolbachia pipientis): 6.226 | IC50 (Wolbachia pipientis): 0.462 µM | IC50 [2]: 16.3 µM | IC50 [3]: 16.4 µM

CO[C@H]1CCN(c2nnc(C)s2)C[C@@H]1Cc1cccc(C)c1.O=C(O)C(F)(F)F
pIC50 (Wolbachia pipientis): 5.267 | IC50 (Wolbachia pipientis): 3.74 µM | IC50 [2]: 41.7 µM | IC50 [3]: 16.7 µM

Cc1ccc(CN2CCn3c(CNC(=O)c4cccn4C)cnc3C2)s1
IC50 (Wolbachia pipientis): > 10 µM | IC50 (Histidine--tRNA ligase): 64.8 µM and 62.5 µM

O=C(O)C(F)(F)F.c1cc(-c2ccc3c(c2)CCC32CCN(c3nncs3)CC2)ccn1
pIC50 (Wolbachia pipientis): 5.133 | IC50 (Wolbachia pipientis): 5.68 µM | IC50 (Histidine--tRNA ligase): 19.6 µM and 24.9 µM

O=C(O)C(F)(F)F.O=C(O)C(F)(F)F.c1cncc(-c2ccc3c(c2)CCC32CCN(Cc3ccco3)CC2)c1
pIC50 (Wolbachia pipientis): 6.473 | IC50 (Wolbachia pipientis): 0.404 µM | IC50 [2]: 20.5 µM | IC50 [3]: 28.7 µM

Cc1ccc(CN(CCCn2ccnc2)Cc2c(F)cccc2F)s1.O=C(O)CC(O)(CC(=O)O)C(=O)O
pIC50 [4]: 4.654 | IC50 [4]: 23.6 µM

Cc1ccc(O)c(CN(CCCn2ccnc2)Cc2ccc(C)s2)c1.O=C(O)CC(O)(CC(=O)O)C(=O)O
pIC50 [4]: 4.427 | IC50 [4]: 42.9 µM
